Test results reported in ChEMBL document CHEMBL5532635, “The role of natural anti-parasitic guided development of synthetic drugs for leishmaniasis” (Eur J Med Chem, 2023).
Values after ≈ are worked out from the molar mass of the structure shown.

Key:
Leishmania major [1] = test: Antileishmanial activity against Leishmania major promastigotes incubated for 24 hrs measured by alamar blue staining based fluorescence analysis; assay type: functional, organism-based
Leishmania infantum [2] = test: Antileishmanial activity against Leishmania infantum MCAN/ES/89/IPZ229/1/89 axenic amastigotes assessed as reduction in parasite viability treated for 24 hrs by PI staining based flow cytometry; assay type: functional, organism-based; settings: MCAN/ES/89/IPZ229/1/89, 24 h
Leishmania major [3] = test: Antileishmanial activity against Leishmania major promastigotes assessed as parasite growth inhibition incubated for 24 hrs by Alamar blue staining based assay; assay type: functional, organism-based
Leishmania donovani [4] = test: Antileishmanial activity against Leishmania donovani promastigotes assessed as inhibition of parasite growth measured after 24 hrs by Alamar blue based analysis; assay type: functional, organism-based
Leishmania amazonensis [5] = test: Antileishmanial activity against Leishmania amazonensis MHOM/BR/77/LTB001 assessed as parasite growth inhibition; assay type: functional, organism-based
Leishmania donovani [6] = test: Antileishmanial activity against Leishmania donovani promastigotes assessed as reduction in parasite growth; assay type: functional, organism-based
Leishmania amazonensis [7] = test: Antileishmanial activity against Leishmania amazonensis amastigotes assessed as reduction in parasite growth; assay type: functional, organism-based
Leishmania amazonensis [8] = test: Antileishmanial activity against Leishmania amazonensis IFLA/BR/1967/PH8 amastigotes infected in mouse peritoneal macrophage assessed as inhibition of parasite growth measured after 24 hrs by Giemsa staining based analysis; assay type: functional, organism-based; settings: IFLA/BR/1967/PH8, Peritoneal macrophage cell
Leishmania donovani [9] = test: Antileishmanial activity against Leishmania donovani intracellular amastigotes assessed as parasite growth inhibition; assay type: functional, organism-based
Leishmania infantum [10] = test: Antileishmanial activity against Leishmania infantum MHOM/BR/1972/BH46 promastigotes assessed as reduction in parasite growth incubated for 24 hrs by PI staining based flow cytometry analysis; assay type: functional, organism-based; settings: MHOM/BR/1972/BH46, 24 h
Leishmania infantum [11] = test: Antileishmanial activity against Leishmania infantum MCAN/ES/89/IPZ229/1/89 promastigote measured after 72 hrs by MTT assay; assay type: functional, organism-based; settings: MCAN/ES/89/IPZ229/1/89, 72 h
Leishmania amazonensis [12] = test: Antileishmanial activity against Leishmania amazonensis amastigotes assessed as reduction in parasite growth measured after 24 hrs by MTT assay; assay type: functional, organism-based
Leishmania amazonensis [13] = test: Antileishmanial activity against Leishmania amazonensis promastigotes assessed as inhibition of parasite growth measured after 72 hrs by alamar blue assay; assay type: functional, organism-based
Leishmania amazonensis [14] = test: Antileishmanial activity against Leishmania amazonensis MHOM/BR/71973/M2269 promastigotes assessed as reduction in parasite growth incubated for 24 hrs by PI staining based flow cytometry analysis; assay type: functional, organism-based; settings: MHOM/BR/71973/M2269, 24 h
Leishmania major [15] = test: Antileishmanial activity against Leishmania major IR-173 promastigotes assessed as inhibition of parasite growth incubated for 48 hrs by resazurin dye based assay; assay type: functional, organism-based; settings: IR-173, 48 h
Leishmania major [16] = test: Antileishmanial activity against Leishmania major promastigotes assessed as inhibition of parasite growth incubated for 48 hrs by resazurin dye based assay; assay type: functional, organism-based
Leishmania major [17] = test: Antileishmanial activity against Leishmania major IR-173 promastigotes assessed as inhibition of parasite viability incubated for 72 hrs by resazurin/alamar blue fluorometric assay; assay type: functional
Leishmania tropica [18] = test: Antileishmanial activity against Leishmania tropica promastigotes incubated for 24 hrs measured by alamar blue staining based fluorescence analysis; assay type: functional, organism-based
Leishmania tropica [19] = test: Antileishmanial activity against Leishmania tropica amastigotes incubated for 24 hrs measured by alamar blue staining based fluorescence analysis; assay type: functional, organism-based
Arginase = Arginase (Leishmania amazonensis, UniProt O96394); test: Inhibition of Leishmania amazonensis Arginase expressed in Escherichia coli BL21 (DE3)
Leishmania amazonensis [20] = test: Antileishmanial activity against Leishmania amazonensis promastigotes assessed as reduction in parasite growth measured after 24 hrs by MTT assay; assay type: functional, organism-based
[21] = Cytotoxicity against mouse RAW264.7 cells assessed as reduction in cell viability measured after 24 hrs by CCK8 assay; assay type: toxicity, cell-based
Leishmania infantum [22] = test: Antileishmanial activity against Leishmania infantum MHOM/BR/70/BH46 promastigotes assessed as inhibition of parasite growth incubated for 72 hrs by Neubauer chamber based analysis; assay type: functional, organism-based; settings: MHOM/BR/70/BH46, 72 h
Leishmania donovani [23] = test: Antileishmanial activity against Leishmania donovani promastigotes assessed as reduction in parasite growth incubated for 72 hrs by MTT assay; assay type: functional, organism-based
[24] = Antileishmanial activity against Leishmania donovani MHOM/IN/95/9515 promastigotes assessed as inhibition of parasite viability incubated for 72 hrs by resazurin/alamar blue fluorometric assay; assay type: functional

With CCOC(=O)C1=C(C)NC(C)=C(C(=O)OCC)C1c1cccc(Cl)c1 the EC50 (Leishmania major [1]) was 15.5 µM.

With Cn1c(=O)c2c(c3ccccc31)OC(C)(C)[C@H]1CC[C@@](C)(O)[C@H](Cl)[C@H]21 the IC50 (Leishmania infantum [2]) was over 6.25 µM.

Compound C[C@@H]1CC[C@@]2(C)C(C(=O)O)=CCC[C@@H]2[C@@]1(C)CCc1ccoc1 has an IC50 (Leishmania major [3]) of 10 µM and an IC50 (Leishmania donovani [4]) of 10 µM.

CN[C@@H]1C[C@H]2O[C@@](C)([C@@H]1OC)n1c3ccccc3c3c4c(c5c6ccccc6n2c5c31)C(=O)NC4=O gave an IC50 (Leishmania amazonensis [5]) of 7 nM, an IC50 (Leishmania donovani [6]) of 1 nM and an IC50 (Leishmania amazonensis [7]) of 0.2 nM.

O=C(CC[Se]c1ccnc2cc(Cl)ccc12)Nc1ccc([N+](=O)[O-])cc1 gave an IC50 (Leishmania amazonensis [8]) of 10.8 µM.

With CCCCCCCCNCc1ccc2c(c1)C(=O)CC(C)(C)O2 the IC50 (Leishmania donovani [9]) was 24.6 µM.

CCCc1cc(OC)c2oc(=O)c(C(=O)c3ccc([N+](=O)[O-])cc3)cc2c1 gave an IC50 (Leishmania infantum [10]) of 3.53 µM, an IC50 (Leishmania infantum [11]) of 6.8 µM and an IC50 (Leishmania amazonensis [12]) of 18 µM. It also gave an IC50 (Leishmania amazonensis [13]) of 18 µM and an IC50 (Leishmania amazonensis [14]) of 26.7 µM.

CCC[C@H]1CC(=O)Oc2c(C(=O)[C@H](C)[C@H](C)O)c(O)c3c(c21)OC(C)(C)C=C3 showed an IC50 (Leishmania major [15]) of 36.5 µg/mL (≈ 94 µM) and an IC50 (Leishmania major [16]) of 29.1 µg/mL (≈ 74.9 µM).

Work on O=C(Cn1cnc2ccccc2c1=O)N1CCC2(CC1)OCCO2 yielded an Activity (Leishmania major [17]) of 35%.

Work on Cc1ccccc1C(=O)N/N=C1\C(=O)N(CC(O)COc2cc(=O)oc3ccccc23)c2ccccc21 (configuration not stated) yielded an IC50 (Leishmania tropica [18]) of 3.73 µM and an IC50 (Leishmania tropica [19]) of 4.13 µM.

For O=C(CCc1ccc(O)c(O)c1)O[C@H](Cc1ccc(O)cc1)C(=O)O, the IC50 (Arginase) was 5.5 µM.

Work on COc1ccc(C(O)C(C)Oc2ccc(C3OC(c4ccc(OC(C)C(O)c5ccc(OC)c(OC)c5)c(OC)c4)C(C)C3C)cc2OC)cc1OC (configuration not stated) yielded an IC50 (Leishmania amazonensis [12]) of 20.4 µg/mL and an IC50 (Leishmania amazonensis [20]) of 35.4 µg/mL (≈ 48.3 µM).

O=C(/C=C/c1ccc(F)cc1)c1ccccc1Cl gave a CC50 at 24 h [21] of 479 µM.

Work on CCc1ccc(NC(=S)N/N=C\c2c[nH]c3c(C)cc(Br)cc23)cc1 yielded an IC50 (Leishmania infantum [22]) of 4.36 µM.

With COc1ccc2nc(C(=O)NCCCN(C)C)ccc2c1 the IC50 (Leishmania amazonensis [8]) was 5.67 µM.

CCOC(=O)C1=CNC(=S)NC1c1ccc(C)cc1 (configuration not stated) gave an IC50 (Leishmania donovani [23]) of 28.3 µg/mL (≈ 102 µM).

With O=C(Cn1cnc2cc(Cl)ccc2c1=O)n1cnc2cc(Cl)ccc2c1=O the Activity [24] was 29%.
